ChEMBL document CHEMBL1201862, “PubChem BioAssay data set” (2004)
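Assay format: 96-well plates, 48-hour exposure. GI50: concentration for 50% inhibition of growth.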 Active and inactive are the calls of the source. Rule as the data show it: active = GI50 up to about 1.1 µM and inactive = higher.

Tests used:
Experiment in all cases: NCI-60 cell line screen, 48 h
HCT-15 = system: HCT-15
OVCAR-3 = system: OVCAR-3
SR = system: SR
SF-539 = system: SF-539
SK-MEL-28 = system: SK-MEL-28
RXF 631 = system: RXF 631
HCC 2998 = system: HCC 2998
SF-268 = system: SF-268
OVCAR-5 = system: OVCAR-5
U-251 = system: U-251
OVCAR-4 = system: OVCAR-4
HCT-116 = system: HCT-116
KM12 = system: KM12
SF-295 = system: SF-295
786-0 = system: 786-0
OVCAR-8 = system: OVCAR-8
HL-60 = system: HL-60
RXF 393 = system: RXF 393
SNB-78 = system: SNB-78
M14 = system: M14
NCI-H226 = system: NCI-H226
COLO 205 = system: COLO 205
TK-10 = system: TK-10
K562 = system: K562
HOP-18 = system: HOP-18
NCI-H460 = system: NCI-H460
SK-MEL-5 = system: SK-MEL-5
SN12C = system: SN12C
XF498 = system: XF498
DLD-1 = system: DLD-1
RPMI-8226 = system: RPMI-8226
LOX IMVI = system: LOX IMVI
HT-29 = system: HT-29
ACHN = system: ACHN
HOP-62 = system: HOP-62
KM-20L2 = system: KM-20L2
MOLT-4 = system: MOLT-4
M19-MEL = system: M19-MEL
UACC-62 = system: UACC-62
SK-OV-3 = system: SK-OV-3
IGROV-1 = system: IGROV-1
UACC-257 = system: UACC-257
Malme-3M = system: Malme-3M
SNB-75 = system: SNB-75
A549 = system: A549
SK-MEL-2 = system: SK-MEL-2
LXFL 529 = system: LXFL 529
HOP-92 = system: HOP-92
DMS-273 = system: DMS-273
CCRF-CEM = system: CCRF-CEM
A498 = system: A498
SNB-19 = system: SNB-19
UO-31 = system: UO-31
DMS-114 = system: DMS-114
EKVX = system: EKVX
CAKI-1 = system: CAKI-1
NCI-H522 = system: NCI-H522
NCI-H23 = system: NCI-H23
Hs-578T = system: Hs-578T
NCI/ADR-RES = system: NCI/ADR-RES
MCF7 = system: MCF7
SW-620 = system: SW-620
MDA-MB-231 = system: MDA-MB-231
T47D = system: T47D
BT-549 = system: BT-549
DU-145 = system: DU-145
MDA-N = system: MDA-N
PC-3 = system: PC-3
MDA-MB-435 = system: MDA-MB-435

CCOC(OC1=C(C#N)CCCC1)C(CC)[Se]c1ccccc1 (configuration not stated)
GI50 (HCT-15): 16200 nM | GI50 (OVCAR-3): 19900 nM (inactive) | GI50 (SR): 7800 nM (inactive) | GI50 (SF-539): 14300 nM (inactive) | GI50 (SK-MEL-28): 23600 nM (inactive) | GI50 (RXF 631): 11300 nM (inactive) | GI50 (HCC 2998): 35200 nM (inactive) | GI50 (SF-268): 12100 nM (inactive) | GI50 (OVCAR-5): 32400 nM (inactive) | GI50 (U-251): 13000 nM (inactive) | GI50 (OVCAR-4): 19300 nM (inactive) | GI50 (HCT-116): 14500 nM (inactive) | GI50 (KM12): > 100000 nM (inactive) | GI50 (SF-295): 27600 nM (inactive) | GI50 (786-0): 17400 nM (inactive) | GI50 (OVCAR-8): 16800 nM (inactive) | GI50 (HL-60): 10100 nM (inactive) | GI50 (RXF 393): 15000 nM (inactive) | GI50 (SNB-78): 33800 nM (inactive) | GI50 (M14): 26300 nM (inactive) | GI50 (NCI-H226): 19400 nM (inactive) | GI50 (COLO 205): 17500 nM (inactive) | GI50 (TK-10): > 100000 nM (inactive) | GI50 (K562): 38900 nM (inactive) | GI50 (HOP-18): 16400 nM (inactive) | GI50 (NCI-H460): 17800 nM (inactive) | GI50 (SK-MEL-5): 16400 nM (inactive) | GI50 (SN12C): 16300 nM (inactive) | GI50 (XF498): 20400 nM (inactive) | GI50 (DLD-1): 16100 nM (inactive) | GI50 (RPMI-8226): 16200 nM (inactive) | GI50 (LOX IMVI): 9250 nM (inactive) | GI50 (HT-29): 29000 nM (inactive) | GI50 (ACHN): 30100 nM (inactive) | GI50 (HOP-62): 59700 nM (inactive) | GI50 (KM-20L2): 25100 nM (inactive) | GI50 (MOLT-4): 20700 nM (inactive) | GI50 (M19-MEL): 19400 nM (inactive) | GI50 (UACC-62): 13700 nM (inactive) | GI50 (SK-OV-3): > 100000 nM (inactive) | GI50 (IGROV-1): 20700 nM (inactive) | GI50 (UACC-257): 46700 nM (inactive) | GI50 (Malme-3M): 31000 nM (inactive) | GI50 (SNB-75): 29300 nM (inactive) | GI50 (A549): 39400 nM (inactive) | GI50 (SK-MEL-2): 29400 nM (inactive) | GI50 (LXFL 529): 19400 nM (inactive) | GI50 (HOP-92): 25000 nM (inactive) | GI50 (DMS-273): 12000 nM (inactive) | GI50 (CCRF-CEM): 15700 nM (inactive) | GI50 (A498): 13600 nM (inactive) | GI50 (SNB-19): 39900 nM (inactive) | GI50 (UO-31): 37800 nM (inactive) | GI50 (DMS-114): 4100 nM (inactive) | GI50 (EKVX): 24400 nM (inactive) | GI50 (CAKI-1): 53100 nM (inactive) | GI50 (NCI-H522): 14700 nM (inactive) | GI50 (NCI-H23): 14300 nM (inactive)

CNC1C(O)CC(OC2C/C=C(\C)C/C(C)=C/C=C/CCC(C)CNC(=O)/C=C/C=C/C2C)OC1C (configuration not stated)
GI50 (Hs-578T): 502 nM (active) | GI50 (NCI/ADR-RES): 718 nM (active) | GI50 (HCT-15): 202 nM | GI50 (OVCAR-3): 986 nM (active) | GI50 (SR): 240 nM (active) | GI50 (SF-539): 918 nM (active) | GI50 (MCF7): 782 nM (active) | GI50 (SK-MEL-28): 667 nM (active) | GI50 (SW-620): 120 nM (active) | GI50 (RXF 631): 206 nM (active) | GI50 (HCC 2998): 286 nM (active) | GI50 (SF-268): 746 nM (active) | GI50 (OVCAR-5): 1180 nM (inactive) | GI50 (U-251): 521 nM (active) | GI50 (OVCAR-4): 303 nM (active) | GI50 (HCT-116): 278 nM (active) | GI50 (KM12): 432 nM (active) | GI50 (SF-295): 250 nM (active) | GI50 (786-0): 245 nM (active) | GI50 (MDA-MB-231): 841 nM (active) | GI50 (OVCAR-8): 324 nM (active) | GI50 (HL-60): 153 nM (active) | GI50 (RXF 393): 1080 nM (active) | GI50 (SNB-78): 1660 nM (inactive) | GI50 (M14): 240 nM (active) | GI50 (NCI-H226): 2770 nM (inactive) | GI50 (COLO 205): 202 nM (active) | GI50 (TK-10): 1100 nM (active) | GI50 (T47D): 783 nM (active) | GI50 (K562): 99.5 nM (active) | GI50 (HOP-18): 1770 nM (inactive) | GI50 (NCI-H460): 173 nM (active) | GI50 (SK-MEL-5): 811 nM (active) | GI50 (SN12C): 820 nM (active) | GI50 (XF498): 1680 nM (inactive) | GI50 (BT-549): 1250 nM (inactive) | GI50 (DLD-1): 260 nM (active) | GI50 (RPMI-8226): 220 nM (active) | GI50 (LOX IMVI): 103 nM (active) | GI50 (HT-29): 224 nM (active) | GI50 (ACHN): 1500 nM (inactive) | GI50 (HOP-62): 1030 nM (active) | GI50 (DU-145): 719 nM (active) | GI50 (KM-20L2): 630 nM (active) | GI50 (MOLT-4): 161 nM (active) | GI50 (M19-MEL): 714 nM (active) | GI50 (UACC-62): 440 nM (active) | GI50 (SK-OV-3): 1150 nM (inactive) | GI50 (IGROV-1): 1290 nM (inactive) | GI50 (UACC-257): 667 nM (active) | GI50 (Malme-3M): 1470 nM (inactive) | GI50 (MDA-N): 340 nM (active) | GI50 (PC-3): 1060 nM (active) | GI50 (SNB-75): 711 nM (active) | GI50 (A549): 504 nM (active) | GI50 (SK-MEL-2): 1190 nM (inactive) | GI50 (LXFL 529): 140 nM (active) | GI50 (HOP-92): 451 nM (active) | GI50 (DMS-273): 188 nM (active) | GI50 (CCRF-CEM): 153 nM (active) | GI50 (A498): 1720 nM (inactive) | GI50 (SNB-19): 2840 nM (inactive) | GI50 (UO-31): 2850 nM (inactive) | GI50 (DMS-114): 463 nM (active) | GI50 (EKVX): 1600 nM (inactive) | GI50 (CAKI-1): 877 nM (active) | GI50 (MDA-MB-435): 377 nM (active) | GI50 (NCI-H522): 973 nM (active) | GI50 (NCI-H23): 863 nM (active)
